“And” between values parts separate entries of the source, which are not always exact repeats. Equal values may be shown once.
Experiments:
α3Y168Cβ2D190C receptor [1] = target: T1, α3Y168Cβ2D190C receptor (Rattus norvegicus, UniProt P04757+P12390, D216C/Y195C); assay: Disulfide cross-linking experiments; format: cell-based
α3S125Cβ2Q39C receptor = α3S125Cβ2Q39C receptor (Rattus norvegicus, UniProt P04757+P12390, Q65C/S152C); assay: Disulfide cross-linking experiments; format: cell-based
α3Q37Cβ2A127C receptor = α3Q37Cβ2A127C receptor (Rattus norvegicus, UniProt P04757+P12390, A153C/Q64C); assay: Disulfide cross-linking experiments; format: cell-based; conditions: 4.4 mM H2O2 alone or with 100 µM ACh + 10 µM Mor; 1 mM ACh, 10 µM Mor (Fig. 7)
wild type α3β2 receptor = wild type α3β2 receptor (Rattus norvegicus, UniProt P04757+P12390); assay: Disulfide cross-linking experiments; format: cell-based; conditions: 5 min 4.4 mM H2O2 alone; 300 µM ACh ± 10 µM Mor
α3E173Cβ2R46C receptor = α3E173Cβ2R46C receptor (Rattus norvegicus, UniProt P04757+P12390, E200C/R46C); assay: Disulfide cross-linking experiments; format: cell-based; conditions: H2O2 alone (Supplemental Fig. S4)
α3S125Cβ2 receptor = α3S125Cβ2 receptor (Rattus norvegicus, UniProt P04757+P12390, S152C); assay: Disulfide cross-linking experiments; format: cell-based; conditions: H2O2 oxidation treatment (Supplemental Fig. S3C)
α3S125Yβ2 receptor = α3S125Yβ2 receptor (Rattus norvegicus, UniProt P04757+P12390, S152Y); assay: Macroscopic evoked currents, two-electrode voltage-clamp, Xenopus laevis oocytes
α3Y168Fβ2 receptor = α3Y168Fβ2 receptor (Rattus norvegicus, UniProt P04757+P12390, Y195F); assay: as above; format: cell-based; conditions: mutation-modulator Ɽ from EC50s vs wild type; 10 µM Oxa
α3Y168Cβ2 receptor = α3Y168Cβ2 receptor (Rattus norvegicus, UniProt P04757+P12390, Y195C); assay: as above; format: cell-based; conditions: mutation-modulator Ɽ from EC50s vs wild type; 10 µM Oxa
α3β2D190Q receptor = α3β2D190Q receptor (Rattus norvegicus, UniProt P04757+P12390, D216Q); assay: as above; format: cell-based; conditions: mutation-modulator Ɽ from EC50s vs wild type; 10 µM Oxa
α3Y168Fβ2D190Q receptor = α3Y168Fβ2D190Q receptor (Rattus norvegicus, UniProt P04757+P12390, D216Q/Y195F); assay: as above; format: cell-based; conditions: mutation-modulator Ɽ from EC50s vs wild type; 10 µM Oxa
α3Y168Cβ2D190C receptor [2] = target: T1, α3Y168Cβ2D190C receptor; assay: as above; format: cell-based; conditions: mutation-modulator Ɽ from EC50s vs wild type; 10 µM Oxa
α3β2D190C receptor = α3β2D190C receptor (Rattus norvegicus, UniProt P04757+P12390, D216C); assay: as above; format: cell-based
Chain of α3β2D190C receptor (P04757 26-499): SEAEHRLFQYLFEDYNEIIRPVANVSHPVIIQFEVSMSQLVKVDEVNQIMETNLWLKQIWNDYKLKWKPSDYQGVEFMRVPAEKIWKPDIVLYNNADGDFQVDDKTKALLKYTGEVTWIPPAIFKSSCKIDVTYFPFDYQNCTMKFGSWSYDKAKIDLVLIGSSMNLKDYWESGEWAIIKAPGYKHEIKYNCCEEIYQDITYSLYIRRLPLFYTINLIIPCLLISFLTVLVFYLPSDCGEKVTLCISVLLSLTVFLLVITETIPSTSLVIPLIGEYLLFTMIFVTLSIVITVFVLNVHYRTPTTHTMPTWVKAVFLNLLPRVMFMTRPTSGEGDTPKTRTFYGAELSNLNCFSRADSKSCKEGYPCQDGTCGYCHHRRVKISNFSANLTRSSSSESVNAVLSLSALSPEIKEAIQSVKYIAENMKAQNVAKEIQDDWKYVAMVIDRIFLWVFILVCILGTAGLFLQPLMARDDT
Chain of α3β2D190C receptor (P12390 25-500 D216C): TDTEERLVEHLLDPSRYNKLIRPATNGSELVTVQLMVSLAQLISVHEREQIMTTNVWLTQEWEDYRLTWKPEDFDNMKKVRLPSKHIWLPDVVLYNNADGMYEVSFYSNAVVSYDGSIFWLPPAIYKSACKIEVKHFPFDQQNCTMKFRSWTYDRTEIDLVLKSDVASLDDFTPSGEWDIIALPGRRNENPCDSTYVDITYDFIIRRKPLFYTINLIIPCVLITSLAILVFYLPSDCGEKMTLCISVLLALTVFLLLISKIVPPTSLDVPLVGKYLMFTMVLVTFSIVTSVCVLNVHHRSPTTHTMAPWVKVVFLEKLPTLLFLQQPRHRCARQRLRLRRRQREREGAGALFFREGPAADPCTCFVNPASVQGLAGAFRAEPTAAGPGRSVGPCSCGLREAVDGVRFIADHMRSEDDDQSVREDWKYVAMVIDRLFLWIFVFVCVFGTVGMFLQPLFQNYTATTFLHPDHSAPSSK

Chain of α3S125Cβ2Q39C receptor (P04757 26-499 S152C): as the sequence (P04757 26-499) above, with S127C counted along it
Chain of α3S125Cβ2Q39C receptor (P12390 25-500 Q65C): as the sequence (P12390 25-500 D216C) above, with Q41C, C192D counted along it
T1 sequence (P04757 26-499 Y195C): as the sequence (P04757 26-499) above, with Y170C counted along it
T1 sequence (P12390 25-500 D216C): as the sequence (P12390 25-500 D216C) above
Chain of α3E173Cβ2R46C receptor (P04757 26-499 E200C): as the sequence (P04757 26-499) above, with E175C counted along it
Chain of α3E173Cβ2R46C receptor (P12390 25-500 R46C): as the sequence (P12390 25-500 D216C) above, with R22C, C192D counted along it
Chain of α3S125Cβ2 receptor (P04757 26-499 S152C): as the sequence (P04757 26-499) above, with S127C counted along it
Chain of α3S125Cβ2 receptor (P12390 25-500, stated change not applied): as the sequence (P12390 25-500 D216C) above, with C192D counted along it
Chain of α3S125Yβ2 receptor (P04757 26-499 S152Y): as the sequence (P04757 26-499) above, with S127Y counted along it
Chain of α3S125Yβ2 receptor (P12390 25-500, stated change not applied): as the sequence (P12390 25-500 D216C) above, with C192D counted along it
Chain of α3β2D190Q receptor (P04757 26-499): as the sequence (P04757 26-499) above
Chain of α3β2D190Q receptor (P12390 25-500 D216Q): as the sequence (P12390 25-500 D216C) above, with C192Q counted along it
Chain of wild type α3β2 receptor (P04757 26-499): as the sequence (P04757 26-499) above
Chain of wild type α3β2 receptor (P12390 25-500): as the sequence (P12390 25-500 D216C) above, with C192D counted along it
Chain of α3Y168Fβ2D190Q receptor (P04757 26-499 Y195F): as the sequence (P04757 26-499) above, with Y170F counted along it
Chain of α3Y168Fβ2D190Q receptor (P12390 25-500 D216Q): as the sequence (P12390 25-500 D216C) above, with C192Q counted along it
Chain of α3Y168Fβ2 receptor (P04757 26-499 Y195F): as the sequence (P04757 26-499) above, with Y170F counted along it
Chain of α3Y168Fβ2 receptor (P12390 25-500): as the sequence (P12390 25-500 D216C) above, with C192D counted along it
Chain of α3Y168Cβ2 receptor (P04757 26-499 Y195C): as the sequence (P04757 26-499) above, with Y170C counted along it
Chain of α3Y168Cβ2 receptor (P12390 25-500): as the sequence (P12390 25-500 D216C) above, with C192D counted along it
Chain of α3Q37Cβ2A127C receptor (P04757 26-499 Q64C): as the sequence (P04757 26-499) above, with Q39C counted along it
Chain of α3Q37Cβ2A127C receptor (P12390 25-500 A153C): as the sequence (P12390 25-500 D216C) above, with A129C, C192D counted along it

## OO [H2O2]
α3Y168Cβ2D190C receptor [1]; H2O2 treatment (abstract)
  reduction of evoked currents following oxidation: up to 50%
α3Y168Cβ2D190C receptor [1]; oxidation onset kinetics (Supplemental Fig. S2A)
  Ioxidation/Icontrol, final fraction of current remaining at long times: 0.61 ± 0.05
α3S125Cβ2Q39C receptor; 4.4 mM H2O2 alone, 300 µM ACh, 300 µM ACh + 10 µM Mor, 10 µM Mor (Fig. 6)
  decrease of currents evoked by ACh, ACh + Mor and Mor alone upon oxidation: 62–89%
α3S125Cβ2Q39C receptor; 5 min 4.4 mM H2O2 alone, current evoked by 300 µM ACh
  decrease of IACh upon oxidation: 60%
α3S125Cβ2Q39C receptor; 5 min 4.4 mM H2O2 alone, current evoked by 300 µM ACh + 10 µM Mor
  decrease of IACh+Mor upon oxidation: 80% and 90%
α3Q37Cβ2A127C receptor
  change of currents evoked by ACh alone, ACh + Mor and Mor alone upon oxidation: all increased
Wild type α3β2 receptor
  effect of oxidizing treatment on evoked currents: unaffected
α3E173Cβ2R46C receptor
  change of currents upon oxidation: significantly increased currents
α3S125Cβ2 receptor
  change in evoked currents upon oxidation: no changes

## CN1CCC[C@H]1c1cccnc1 [nicotine]
α3S125Yβ2 receptor
  efficacy compared with ACh: greater efficacy

## CN1CCCN=C1/C=C/c1cccc(O)c1 [Oxa, 1-methyl-2-(3-hydroxyphenylethenyl)-1,4,5,6-tetrahydropyrimidine with 4,4’-methylenebis(3-hydroxy-2-naphthoic acid)]
α3Y168Fβ2 receptor
  R(mut-Oxa): 1.5
α3Y168Cβ2 receptor
  R(mut-Oxa): 1.2
α3β2D190Q receptor
  R(mut-Oxa): 19
α3Y168Fβ2D190Q receptor
  R(mut-Oxa): 1.6
α3Y168Cβ2D190C receptor [2]
  R(mut-Oxa): 1.9
α3β2D190C receptor; 10 µM modulator (Fig. 3B)
  potentiation of ACh-evoked currents: eliminated
α3β2D190C receptor; mutation-modulator Ɽ from EC50s vs wild type, 10 µM Oxa
  R(mut-Oxa): 19

— publication PMC4332533 (Neuropharmacology, 2014)
